Experimental data published in US20090131500A1, “PORPHYRIN DERIVATES AND THEIR USE AS PHOTOSENSITIZERS IN PHOTODYNAMIC THERAPY” (priority 2006, published 2009).

Tests used:
Assay type in all cases: physicochemical
[1] = Time-resolved singlet oxygen luminescence at 1270 nm (singlet oxygen quantum yield); settings: excitation at 510 nm, Pheo as reference
Experimental: Photosensitizer-generated time-resolved singlet oxygen luminescence was measured at 1270 nm. A nanosecond Nd-YAG laser (BMI) equipped with an OPO (BMI) was used to excite the samples at 510 nm and the luminescence signal was recorded by a germanium pin diode (Northcoast). To calculate the singlet oxygen quantum yield, (DA, the solution of Pheo in DMF as well as in ethanol were used as reference (ΦΔ^Pheo=0.52).

[2] = Steady-state fluorescence spectrum (fluorescence quantum yield)
Experimental: (§1) The ground state absorption spectra were recorded at room temperature using a commercial spectrophotometer Shimadzu UV-2501PC. Steady-state fluorescence spectra were measured in 1 cm×1 cm quartz optical cells using a combination of a cw-Xenon lamp (XBO 150) and a monochromator (Lot-Oriel, bandwidth 10 nm) for excitation and a polychromator with a cooled CCD matrix as a detector system (Lot-Oriel, Instaspec IV).

[3] = Ground state absorption spectrum
Experimental: as §1

[4] = Transient absorption spectra (ISC / triplet quantum yield)
Experimental: To measure transient absorption spectra (TAS), a white light continuum was generated as a test beam in a cell with D2O/H2O mixture using intense 25 ps single pulses from a Nd:YAG laser (Ekspla) at 1064 nm. Before passing through the sample, the continuum radiation was split to get a reference spectrum. The transmitted as well as the reference beam were focused into two optical fibers and were recorded simultaneously at different traces on a CCD-matrix (Lot-Oriel, Instaspec IV). The tunable radiation of a OPO/OPG (Ekspla, tuning range 210-2300 nm) pumped by the third harmonic of the same laser was used for excitation of the samples. The mechanical delay line allowed measuring the light-induced changes in the absorption spectrum at different time delays up to 15 ns after excitation.

5^4, 10^4, 15^4, 20^4-tetra-t-butyl[3,5^2]-ethano-5^6-methyl-3^1-oxo-5,10,15,20-tetraphenylporphyrin [FB-1-CO]
singlet oxygen quantum yield ΦΔ [1]: 0.9 | fluorescence quantum yield ΦFl [2]: 0.02 | absorption band of the first excited singlet state ([3]; in ethanol (FIG. 1)): 690 nm | Qy-absorption at λ ([3]; room temperature): 690 nm | ISC quantum yield ΦISC [4]: 0.95±0.05
